Experimental data published in patent publication US5789395A, “Method of using tetracycline compounds for inhibition of endogenous nitric oxide production” (The Research Foundation of State University of New York, priority 1996, dated 1998).
In brackets after ≈: the same amount, converted by molar mass. Like-named read-outs stand apart in the source and are kept apart here.

What was measured:
[1] = tested on: inducible OA-NOS in OA-affected cartilage; experiment: NO (nitrite) release from OA-affected cartilage in organ culture; assay type: cell-based, human; settings: for inhibition of NO production in OA-affected cartilage: 5-80 μg/mL, 24-72 h, ex vivo; for IC50: Homo sapiens, 72 h
Excerpt: We examined whether tetracyclines, e.g., doxycycline or minocycline, could block human OA-NOS activity under ex vivo conditions. Generally accepted pharmacologically relevant concentrations were selected for this study based on previous reports (Greenwald 1994, Yu et al. 1991, Cole et al. 1994, Mallya et al. 1994). OA-affected cartilage was obtained from patients with advanced OA undergoing knee replacement surgery and free of steroidal/nonsteroidal antiinflammatory drugs for at least 2 wk before surgery. OA-affected cartilage slices (FIGs. 1A-1C) were incubated in 0.1% BSA/endotoxin-free medium with 5-80 μg/mL of doxycycline or minocycline (Sigma Chemical Co., St. Louis, Mo.) for 24, 48 and 72 h in ex vivo conditions.
The assay of OA-iNOS in organ culture was basically carried out as described previously (Amin et al. 1995a). Briefly, the OA-affected cartilage was cultured in the presence or absence (Control) of doxycycline and minocycline at 5-80 μg/mL, for 24-72 h in an incubator (37° C.). Activity of NOS was monitored at different time intervals by estimating the amount of the stable end-product, nitrite, in the medium by a modified Griess reaction (Gilliam et al. 1993) using an ELISA reader. The amount of NO spontaneously released (as measured by nitrite accumulation) at 0, 24, 48 and 72 h was 0, 4.8±0.38, 16.4±0.7, and 17.8±0.9 μM, respectively. Data are expressed as μM nitrite released±(SD), n=3-4. The statistics were derived using unpaired Student's t test. FIGS. 1A-1C show a time series of graphs (1A=24 h; 1B=48 h; and IC=72 h) summarizing data representing one of three identical experiments with samples from different patients.

iNOS = iNOS activity (L-arginine-to-L-citrulline) in cell-free extracts of cells treated with modulator before LPS; assay type: cell-based, murine
Description: Murine macrophage cells (RAW 264.7) were incubated with 20-80 μg/mL doxycycline or minocycline, 10 μM hydrocortisone (Sigma Chemical Co., St. Louis, Mo.), or 75 μM L-NMMA for 1-2 h, followed by addition of LPS at 100 ng/mL and incubation for 16-18 h. Cell-free extracts were prepared at the end of each time period. Specific activity of iNOS was determined in the cell-free extracts by monitoring the conversion of L-[^3 H]-arginine to L-[^3 H]-citrulline as described by Amin et al. (1995b) and Vyas et al. (1996).
Cell-free extracts were prepared as follows: Following induction by incubation with LPS, the cells were pelleted at 4° C. and resuspended in Tris buffer (10 mM, pH 7.4) containing 10 μg/mL each chymostatin, antipain, leupeptin and pepstatin, 1 mM DTT and 1 mM PMSF. Cells were lysed in a Polytron PT 1200 homogenizer (Kinematica AG, Switzerland) after 3 cycles of rapid freeze-thawing. The lysate was centrifuged at 16,000 rpm for 60 min at 4° C., and the supernatants were used as cell-free extracts.
The protein in the extracts was measured by BCA assay reagent using BSA as standard (Smith et al. 1985). The reaction mixture for iNOS assay consists of Tris 50 mM (pH 7.8); BSA 1 mg/mL; DTT 1 mM; CaCl2, 2 mM; FAD 10 μM; BH4 10,μM; L-arginine 30 μM; NADPH 1 mM. The reaction mixture was spiked with 1μL (250 nM) of L-[^3 H]-arginine (Dupont NEN, Boston, Mass.) (1 mCi/mL=37.0 MBq/mL). After 20 min the assays were terminated by heating the reaction mixture at 90° C. for 5 min. Ten microiters (≈100,000 cpm) of the supernatant was spotted on activated AVICEL TLC plates (Analtech, Newark, Del.). The TLC plates were developed in a solvent system consisting of ethanol:water:ammonia (80:16:4). Quantitation of the spot for L-[^3 H]-citrulline was performed by a Bioscan System 200 Imaging Scanner.

[2] = tested on: iNOS in RAW 264.7 murine macrophage cells; experiment: nitrite accumulation in LPS-stimulated RAW 264.7 cells; assay type: cell-based; settings: for IC50: Mus musculus
Description: RAW 264.7 murine macrophage cells (American Type Culture Collection, Rockville, Md.) were incubated with and without doxycycline or minocycline (5-80 μg/mL) for 1-2 h followed by activation through addition of 100 ng/mL of LPS (Sigma Chemical Co., St. Louis, Mo.) to induce iNOS (Stuehr et al. 1991). After 14-20 h of incubation, the medium was used to estimate nitrite accumulation by the modified Griess reaction (Gilliam et al. 1993). The values are represented as μM of nitrite accumulated at a given time interval; n=3. The statistics were derived using unpaired Student's t test. The data represent one of three similar experiments.

β-actin = β-actin levels in LPS-activated RAW 264.7 cells (Western blot); assay type: cell-based, murine; settings: 20-80 μg/mL
Description: (§1) RAW 264.7 cells were activated with 100 ng/mL LPS for 16-18 h, with and without doxycycline or minocycline (20-80 μg/mL) or with hydrocortisone (10 μM). Cell-free extracts were prepared as described above. The extract s were analyzed for 133 kD iNOS by Western blotting, using specific anti-iNOS antibodies.
(§2) Equal amounts of protein (25-50 μg) estimated by BCA reagent (Pierce, Rockford, Ill.) were loaded onto SDS-PAGE gels and stained to verify the concentrations of various protein fractions by examining the intensities of the protein bands on the gels. Western blot analysis was carried out from the same cell extracts. The Western-blotted membrane was probed with a specific anti-murine iNOS monoclonal antibody (Transduction Laboratories, Lexington, Ky.), as specified by the supplier. The same blot was also probed with an anti-actin antibody generously provided by Dr. James L. Lessard (Children's Hospital Medical Center, Cincinnati, Ohio). The blots were developed using the ECL Western blot system (Amersham, Arlington Heights, Ill.). Quantitation of the bands was performed using a densitometer from Molecular Dynamics (Sunnyvale, Calif.). FIG. 5 is representative.

133 kD iNOS = experiment: iNOS protein expression in LPS-activated RAW 264.7 cells (Western blot); assay type: cell-based, murine
Description: as §1, §2

`C[C@H]1c2cccc(O)c2C(O)=C2C(=O)[C@]3(O)C(O)=C(C(N)=O)C(=O)[C@@H](N(C)C)[C@@H]3[C@@H](O)[C@@H]21` [doxycycline] was tested, and the “inhibition of NO production in OA-affected cartilage” value [1] was “significantly inhibited NO production in OA-affected cartilage in a dose-dependent manner”, the IC50 [1] was 32 µg/mL (≈ 72 µM) and the “IC50 to inhibit iNOS activity in cell lysates” value (iNOS) was 20 to 30 µg/mL. For the same compound, the “inhibition of iNOS activity” value (iNOS; 20 μg/mL) was 57%, the “inhibition of iNOS activity” value (iNOS; 40 μg/mL) was 72% and the “inhibition of iNOS activity” value (iNOS; 80 μg/mL) was 85%. The “concentration at which inhibitory effects on iNOS expression (mRNA, specific activity and nitrite accumulation) reach a plateau” value [2] was 40 to 80 µg/mL, the IC50 ([2]; RAW264.7, 14 h of incubation, read-out: IC50) was 72 µg/mL (≈ 162 µM) and the IC50 ([2]; RAW264.7, 20 h of incubation, read-out: IC50) was 22 µg/mL (≈ 49.5 µM). The “concentration required to inhibit iNOS-mediated production of NO by >50%” value ([2]; compared to minocycline, 14 h and 20 h) was “significantly higher concentrations”, the “effect on the levels of β-actin synthesis” value (β-actin) was “no significant effect” and the “inhibition of iNOS protein expression” value (133 kD iNOS; 20 μg/mL) was 11%. For the same compound, the “inhibition of iNOS protein expression” value (133 kD iNOS; 40 μg/mL) was 24% and the “inhibition of iNOS protein expression” value (133 kD iNOS; 80 μg/mL) was 65%.
`CN(C)c1ccc(O)c2c1C[C@H]1C[C@H]3[C@H](N(C)C)C(O)=C(C(N)=O)C(=O)[C@@]3(O)C(O)=C1C2=O` [minocycline] was tested, and the “inhibition of NO production in OA-affected cartilage” value [1] was “significantly inhibited NO production in OA-affected cartilage in a dose-dependent manner”, the IC50 [1] was 54 µg/mL (≈ 118 µM) and the “IC50 to inhibit iNOS activity in cell lysates” value (iNOS) was 20 to 30 µg/mL. The “inhibition of iNOS activity” value (iNOS; 20 μg/mL) was 45%, the “inhibition of iNOS activity” value (iNOS; 40 μg/mL) was 69% and the “inhibition of iNOS activity” value (iNOS; 80 μg/mL) was 69%. For the same compound, the “concentration at which inhibitory effects on iNOS expression (mRNA, specific activity and nitrite accumulation) reach a plateau” value [2] was 40 to 80 µg/mL, the IC50 ([2]; RAW264.7, 14 h) was 17 µg/mL (≈ 37.2 µM) and the IC50 ([2]; RAW264.7, 20 h) was 12 µg/mL (≈ 26.2 µM). The “effect on the levels of β-actin synthesis” value (β-actin) was “no significant effect”, the “inhibition of iNOS protein expression” value (133 kD iNOS; 20 μg/mL) was 14% and the “inhibition of iNOS protein expression” value (133 kD iNOS; 40 μg/mL) was 49%. For the same compound, the “inhibition of iNOS protein expression” value (133 kD iNOS; 80 μg/mL) was 83%.
